From patent publication US20230141988A1, “PHARMACEUTICAL COMPOSITION FOR USE IN THE TREATMENT OF NEUROLOGICAL DISEASES” (Aclipse One Inc., priority 2020, published 2023)
Several values for one entry are separate records, joined by “and”; a condition that tells them apart may be missing. Equal entries are not always repeated. Where two headings read alike, the source gives them in different places.

Tests used:
[1] = Oxidation in liquid solutions; format: physicochemical; conditions: in the liquid solutions
[2] = subcutaneous […], plasma, mean of 3 mice
Description: (§1) 9 male C57BL/6J mice following administration of a single subcutaneous dose of 4.40 mg/kg. The vehicle for the subcutaneous formulation contained “0.1% sodium metabisulfite solution”.
(§2) Male C57BL/6J mice were purchased from Si Bei Fu Laboratory Animal Technology Co. Ltd (Beijing, China). The animals were about 8 weeks old with body weights of 20-30 g on the dosing date. The animals were housed in a 12-hour light/12-hour dark cycle environment and had free access to food and water. All animals were fasted overnight and fed after 4 hours collection.
(§3) For group 1, plasma samples were collected from dorsal metatarsal vein at each time point after subcutaneous administrations.
(§4) For plasma samples, about 30 μL or 300 μL of blood samples were collected from each animal via dorsal metatarsal vein or heart. These blood samples were placed into the tubes containing K2EDTA. And centrifugation at 3000 g for 10 minutes in a 4° C. centrifuge. The completion time from collection was less than 30 min. The stabilizing agent of ascorbic acid at 200 mg/mL was added in a proportion of 10% in plasma. The plasma samples were stored in a freezer at −75±15° C. prior to analysis. The completion time from collection was less than 60 min.
(§5) For brain and CSF samples, The animals were fully exsanguinated with a rising concentration of CO2 gas prior to CSF and brain collection.
(§6) For CSF collection, incision was made by scissors on the neck of the rats to expose the foramen magnum. A syringe fitted with a venoclysis needle was used to sample the CSF, the tip of the needle was inserted into the membrane of foramen magnum about 1-2 mm, and a negative pressure was applied by pulling a stopcock a small length of the syringe to extract CSF fluids into a tube. The stopcock was further actuated to until a sufficient amount of CSF was collected. There should be no blood in the CSF fluid. A stabilizing agent of ascorbic acid at 200 mg/mL was added in a proportion of 10% in CSF.
(§7) For brain collection. Brain samples were collected at an adopted time point, and washed 3 times with cold saline, then dried with clean gauze and put into the weighed tube, quick frozen in an ice box and kept at −75±15° C. All brain samples were weighted and homogenized with phosphate buffered saline (PBS) by brain weight (g) to PBS volume (mL) ratio 1:3 before analysis. The stabilizing agent of ascorbic acid at 200 mg/mL was added in a proportion of 10% in grain homogenate. The actual concentration was the detected value multiplied by the dilution factor. Brain samples were collected at designed time point, quickly homogenized and kept at −75±15° C.
(§8) Calibration standard working solutions were prepared at concentrations of 2, 5, 10, 20, 50, 100, 500, 1000, 5000 and 10000 ng/mL by serial dilution of the standard stock solution in 50% acetonitrile in water. Quality control working solutions at concentrations of 5, 10, 500 and 8000 ng/mL were prepared by serial dilution of the standard stock solution in 50% acetonitrile in water. These QC samples were prepared on the day of analysis in the same way as calibration standards.
(§9) For plasma and brain samples, 3 μL of each calibration standard working solution (2, 5, 10, 20, 50, 100, 500, 1000, 5000 and 10000 ng/mL) was added to 30 μL of the blank C57BL/6J mouse plasma or brain homogenate (with 10% 200 mg/mL ascorbic acid) to achieve calibration standards of 0.2-1000 ng/mL (0.2, 0.5, 1, 2, 5, 10, 50, 100, 500, 1000 ng/mL) in a total volume of 33 μL. Quality Control (QC) samples at 0.5 ng/mL (low-1), 1 ng/mL (low-2), 50 ng/mL (mid), 800 ng/mL (high) for plasma were prepared independently for those used for the calibration curves. These QC samples were prepared on the day of analysis in the same way as calibration standards.

[3] = for AUC_%Extrap_obs: Mean, male C57BL/6J mice; for Brain concentration, Mean / Plasma concentration, Mean / CSF concentration / plasma concentration: male, C57BL/6J, mouse, in vivo, po, 25 mg/kg
Description: as §2
(§10) The formulation was freshly made prior to use. Preparation of formulation for oral dosing are as follows:
(§11) For Group 1 and 2, blood, CSF and brain samples were collected from 3 mice at the following time points.
(§12) Plasma samples: About 30 μL or 300 μL of blood samples were collected from each animal via dorsal metatarsal vein or heart. These blood samples were placed into the tubes containing K2EDTA. And centrifugation at 3000 g for 10 minutes in a 4° C. centrifuge. The completion time from collection was less than 30 min. The stabilizing agent of ascorbic acid at 200 mg/mL was added in a proportion of 10% in plasma. The plasma samples were stored in a freezer at −75±15° C. prior to analysis. The completion time from collection was less than 60 min.
(§13) Brain and CSF Samples: The animals were fully exsanguinated with a rising concentration of CO2 gas prior to CSF and brain collection.
(§14) For CSF collection, make an incision by scissors on the neck of the rats, and the foramen magnum is exposed to the sight of scientist. Use a syringe with a venoclysis needle to sample the CSF, the tip of the needle is insert into the membrane of foramen magnum about 1-2 mm, and then pull the stopcock a small length of the syringe to make a negative pressure, then the CSF fluids to the tube. Watch the fluid in the tube and pull the stopcock slowly, when the amount of the CSF is enough, stop and split the needle and the syringe to ensure there is no negative pressure in the tube. Then cut off the needle and collect the CSF fluid. If we could see the blood in the tube, stop immediately, split the needle and the syringe, and then cut off between the blood and CSF to ensure there is no blood in the CSF fluid. Then collect the CSF fluid. The stabilizing agent of ascorbic acid at 200 mg/mL was added in a proportion of 10% in CSF. The completion time from collection was less than 60 min.
(§15) For brain collection. Brain samples were collected at adopted time point, and washed 3 times with cold saline, then dried with clean gauze and put into the weighed tube, quick frozen in ice box and kept at −75±15° C. All brain samples were weighted and homogenized with phosphate buffered saline (PBS) by brain weight (g) to PBS volume (mL) ratio 1:3 before analysis. The stabilizing agent of ascorbic acid at 200 mg/mL was added in a proportion of 10% in Brain homogenate. The actual concentration was the detected value multiplied by the dilution factor. Brain samples were collected at designed time point, quickly homogenized and kept at −75±15° C. The completion time from collection was less than 60 min.
(§16) Calibration standard working solutions were prepared at concentrations of 0.2, 0.5, 1, 2, 5, 10, 50, 100, 500, 1000 ng/mL by serial dilution of the standard stock solution. These QC samples were prepared on the day of analysis in the same way as calibration standards.
(§17) Plasma: The desired serial concentrations of working solutions were achieved by diluting stock solution of analyte with 50% acetonitrile in water solution. 10 μL of working solutions (0.1, 0.2, 0.5, 1, 2, 5, 10, 50, 100, 500, 1000 ng/mL) were added to 10 μL of the blank C57BL/6J Mice plasma to achieve calibration standards of 0.1˜1000 ng/mL (0.1, 0.2, 0.5, 1, 2, 5, 10, 50, 100, 500, 1000 ng/mL) in a total volume of 20 μL.

[4] = plasma, fed male Cynomolgus Monkeys, PO 10 mg/kg, animal 168777C
Description: (§18) Three male Cynomolgus Monkeys were administrated a single oral dose at 10 mg/kg. The oral vehicle was 10% (w/v) HP-β-CD in water.
(§19) Male Cynomolgus Monkeys were purchased from Topgene Biotechnology. The animals were 2-5 years old with body weights of 2.0-5.0 kg on the dosing date. The animals were housed in a 12-hour light/12-hour dark cycle environment and had free access to food and water.
(§20) All animals for PO administration were fasted overnight prior to dosing and will be fed approximately 2 hours after dosing.
(§21) Three male Cynomolgus Monkeys were assigned to this study. […] The dosing regimens and formulation (vehicle) compositions are described in the following table below:
(§22) Animals were weighed prior to dose administration on the day of dosing for calculating the actual dose volume. The dosages were prepared as illustrated in the table below:
(§23) Blood samples were taken at the following times:
(§24) Whole blood samples were gently inverted several times to ensure anticoagulation then placed on wet ice prior to centrifugation. Within 30 minutes of collection, the samples were centrifuged at approximately 4,000×g (force) for 5 minutes at 2 to 8° C. to obtain plasma. The stabilizing agent, ascorbic acid at 200 mg/mL, was added in a proportion of 10% in plasma. The plasma samples were stored in a freezer at −75±15° C. prior to analysis. The completion time from collection was less than 60 min. The resultant plasma samples will be immediately separated divided into 2 aliquots (˜75 μL each) and transferred to cryogenic vial. Samples will be maintained on wet ice throughout processing, and stored in a freezer at −75±15° C. prior to analysis. Samples should be protected from ambient light (under sodium lamp).
(§25) Calibration standard working solutions were prepared at concentrations of 2, 5, 10, 20, 100, 500, 1000, 5000, 10000 ng/mL by serial dilution of the standard stock solution in 1:1 acetonitrile:water. Quality control working solutions at concentrations of 5, 10, 20, 500 and 8000 ng/mL were prepared by serial dilution of the standard stock solution in 1:1 acetonitrile:water. The QC samples were prepared on the day of analysis in the same way as calibration standards.
(§26) Samples were prepared with 5 μL of each calibration standard working solution (2, 5, 10, 20, 100, 500, 1000, 5000, 10000 ng/mL) added to 50 μL of the blank Cynomolgus Monkeys plasma to achieve calibration standards concentrations of 0.2, 0.5, 1, 2, 10, 50, 100, 500, 1000 ng/mL (relative to a 50-4, plasma aliquot). Quality Control (QC) samples at 0.5 ng/mL (low-1), 1 ng/mL (low-2), 2 ng/mL (low-3), 50 ng/mL (mid) and 800 ng/mL (high) for plasma were prepared independently for those used for the calibration curves.
(§27) Total volumes of 55 μL of standards, 55 μL of QC samples and 55 μL of unknown samples (50 μL of plasma with 5 μL of 1:1 acetonitrile:water) were added to 200 μL of acetonitrile containing IS to precipitate proteins. Then the samples were vortexed for 30 sec. […] All of the samples were processed on ice.
(§28) The LC-MS/MS system consisted of two Shimadzu LC-30AD pumps, a DGU-20A5R degasser, a Rack changer II and an AB Sciex Triple Quad 5500 LC/MS/MS mass spectrometer. Chromatographic separation was performed on Agilent ZORBAX XDB-Phenyl 5 μm (50×2.1 mm) at room temperature. The mobile phase was composed of A: 5% Acetonitrile/95% water (0.1% Formic acid); B: 95% Acetonitrile/5% water (0.1% Formic acid). The flow rate was 0.6 mL/min. The injection volume was 2 μL.
(§29) A multiple reaction monitoring (MRM) method was selected for quantitative analysis. […] The instrument parameters were set as follows: ion spray voltage: 5500 V; curtain gas: 40 psi; ion source gas 1: 50 psi; ion source gas 2: 50 psi; temperature: 450° C. The compound dependent parameters are listed as follows:
(§30) HPLC flow rate was set at 0.6 mL/min with the following conditions:

[5] = in vivo; conditions: male, C57BL/6J, mouse
Description: as §1, §2, §3, §4, §5, §6, §7, §8, §9

[6] = in vivo; conditions: male, SD, rat; for AUC(0-inf): AUCInf; for AUC(0-t): AUClast; for MRT inf: MRTInf
Description: The vehicle for the IV, subcutaneous, PO and IN formulation contained “0.1% sodium metabisulfite solution”.
Male SD rats were purchased from Si Bei Fu Laboratory Animal Technology Co. Ltd (Beijing, China). The animals were about 8 weeks old with body weights of 200-300 g on the dosing date. The animals were housed in a 12-hour light/12-hour dark cycle environment and had free access to food and water. All animals were fasted overnight and fed after 4 hours collection.
Plasma samples were collected from jugular vein at each time point after IV, subcutaneous, PO and IN administrations.
About 200 μL of blood samples were collected from each animal via jugular vein. These blood samples were placed into the tubes containing K2EDTA. And centrifugation at 3000 g for 10 minutes in a 4° C. centrifuge. The completion time from collection was less than 30 min. The stabilizing agent of ascorbic acid at 200 mg/mL was added in a proportion of 10% in plasma. The plasma samples were stored in a freezer at −75±15° C. prior to analysis. The completion time from collection was less than 60 min.
Calibration standard working solutions were prepared at concentrations of 2, 5, 10, 20, 50, 100, 500, 1000, 5000 and 10000 ng/mL by serial dilution of the standard stock solution in 50% acetonitrile in water. Quality control working solutions at concentrations of 5, 10, 20, 500 and 8000 ng/mL were prepared by serial dilution of the standard stock solution in 50% acetonitrile in water. These QC samples were prepared on the day of analysis in the same way as calibration standards.
For plasma samples, 2 μL of each calibration standard working solution (2, 5, 10, 20, 50, 100, 500, 1000, 5000 and 10000 ng/mL) was added to 20 μL of the blank SD rat plasma (with 10% 200 mg/mL ascorbic acid) to achieve calibration standards of 0.2-1000 ng/mL (0.2, 0.5, 1, 2, 5, 10, 50, 100, 500, 1000 ng/mL) in a total volume of 22 μL. Quality Control (QC) samples at 0.5 ng/mL (low-1), 1 ng/mL (low-2) and 2 ng/mL (low-3), 50 ng/mL (mid), 800 ng/mL (high) for plasma were prepared independently for those used for the calibration curves. These QC samples were prepared on the day of analysis in the same way as calibration standards. The total volumes of 22 μL of standards, 22 μL of QC samples and 22 μL of unknown samples (20 μL of unknown plasma (with 10% 200 mg/mL ascorbic acid) with 2 μL 50% acetonitrile) were added to 200 μL of acetonitrile containing IS to precipitate proteins. Then the samples were vortexed for 30 sec. After centrifugation at 4° C., 4700 rpm for 30 min, and supernatant was diluted 2 times with water, 10 μL of the diluted supernatant was injected into the LC-MS/MS system for quantitative analysis.
All the samples were processed on ice.
The LC-MS/MS system consisted of two Shimadzu LC-30AD pumps, a DGU-20A5R degasser, a Rack changer II and LCMS-8060 LC/MS/MS instrument mass spectrometer.
OD-3R Particle size 3 μm 4.6 mm×150 mm column at room temperature. The mobile phase was composed of A: Water (5 mM Ammonium Acetate); B: Ethanol (5 mM Ammonium Acetate). The flow rate was 0.5 mL/min. The injection volume was 10 μL.
A multiple reaction monitoring (MRM) method was selected for quantitative analysis. […] The instrument parameters were set as follows: ion spray voltage: 8060; heating gas flow: 10 L/min; interface temperature: 250° C.; DL temperature: 220° C.; heat block temperature: 400° C.; drying gas flow: 10 L/min.
Data acquisition was performed by Lab Solutions version 5.89 Software (Shimadzu). All concentration data was reported with 3 significant figures. Data statistics were performed using Excel 2010 software.
The linear trapezoidal algorithm was used for AUC calculation.

[7] = in vivo; conditions: male, C57BL/6J, mouse, po, 25 mg/kg; for concentration at […]: […] post last day (Day 4) dose
Description: as §2, §10, §11, §12, §13, §14, §15, §16, §17

[8] = in vivo; conditions: male, cynomolgus monkey, po, 10 mg/kg, Plasma concentration, fed male Cynomolgus Monkeys
Description: as §18, §19, §20, §21, §22, §23, §24, §25, §26, §27, §28, §29, §30

[9] = 0.88 mg/kg, plasma concentration
[10] = iv, 0.88 mg/kg, plasma concentration
[11] = iv, 0.88 mg/kg, plasma concentration, Mean

CN1CCc2cccc3c2[C@@H]1Cc1ccc(O)c(O)c1-3
oxidation [1]: significant oxidation
AUClast/D [2]: 73.8 mg·h/mL
AUC_%Extrap_obs ([3]; CSF, last day (Day 4) of repeated oral dose 25 mg/kg): 3.18%
AUC_%Extrap_obs ([3]; brain, single oral dose 25 mg/kg): 18.5%
Brain concentration, Mean ([3]; 0.5 h): 90 ng/g
Plasma concentration, Mean ([3]; 0.5 h): 453 ng/mL
Brain concentration, Mean ([3]; 1 h): 36.3 ng/g
CSF concentration ([3]; 1 h): 3.06 ng/mL
Plasma concentration, Mean ([3]; 1 h): 153 ng/mL
Brain concentration, Mean ([3]; 2 h): 21.9 ng/g
Brain concentration, Mean ([3]; 3 h): 6.80 ng/g
Plasma concentration, Mean ([3]; 3 h): 48.2 ng/mL
CSF concentration ([3]; 4 h): 3.42 ng/mL
plasma concentration ([3]; 8 h): 0.599 ng/mL
plasma concentration ([3]; 12 h): 0.150 ng/mL
AUClast/D [4]: 4.26 mg·h/mL
concentration at 0.5 h ([5]; CSF concentration): 9.59 ng/mL
concentration at […] ([5]; CSF concentration): 20.5 ng/mL
concentration at 0.5 h ([5]; plasma concentration): 169 ng/mL
concentration at 1 h ([5]; plasma concentration): 52 ng/mL
concentration at 2 h ([5]; plasma concentration): 14.9 ng/mL
concentration at […] ([5]; plasma concentration): 760 ng/mL and 721 ng/mL
concentration at 0.5 h ([5]; plasma concentration, Mean): 187 ng/mL
concentration at 1 h ([5]; plasma concentration, Mean): 41 ng/mL
concentration at 2 h ([5]; plasma concentration, Mean): 18.7 ng/mL
concentration at […] ([5]; plasma concentration, Mean): 970 ng/mL and 692 ng/mL
concentration at 0.5 h [6]: 31 ng/mL
concentration at 1 h [6]: 8.96 ng/mL
concentration at 2 h [6]: 6.87 ng/mL
concentration at 8 h [6]: 0.651 ng/mL
concentration at […] [6]: 114 ng/mL
concentration at […] ([6]; 0.88 mg/kg): 119 ng/mL
concentration at 2 min [6, 9]: 42.7 ng/mL
concentration at 0.5 h [6, 9]: 40.5 ng/mL
concentration at 1 h [6, 9]: 5.76 ng/mL
concentration at 2 h [6, 9]: 1.52 ng/mL
concentration at 8 h [6, 9]: 0.877 ng/mL
concentration at […] [6, 9]: 162 ng/mL and 151 ng/mL and 107 ng/mL
AUC(0-inf) ([6]; iv, 0.88 mg/kg): 86.6 ng·h/mL
AUC(0-t) ([6]; iv, 0.88 mg/kg): 83.2 ng·h/mL
C0 ([6]; iv, 0.88 mg/kg, C0): 527 ng/mL
clearance ([6]; iv, 0.88 mg/kg, Cl): 169 mL/min/kg
MRT inf ([6]; iv, 0.88 mg/kg): 75.6 min
Vd ([6]; iv, 0.88 mg/kg, Vss): 12.8 L/kg
concentration at 2 min [6, 10]: 353 ng/mL
concentration at 0.5 h [6, 10]: 17.8 ng/mL
concentration at 1 h [6, 10]: 7.6 ng/mL
concentration at 2 h [6, 10]: 4.32 ng/mL
concentration at 8 h [6, 10]: 0.88 ng/mL
concentration at […] [6, 10]: 104 ng/mL
concentration at 2 min [6, 11]: 339 ng/mL
concentration at 0.5 h [6, 11]: 16.4 ng/mL
concentration at 1 h [6, 11]: 6.37 ng/mL
concentration at 2 h [6, 11]: 3.67 ng/mL
concentration at 8 h [6, 11]: 0.777 ng/mL
AUC(0-inf) ([6]; sc, 0.88 mg/kg): 71.2 ng·h/mL
AUC(0-t) ([6]; sc, 0.88 mg/kg): 70.2 ng·h/mL
Cmax ([6]; sc, 0.88 mg/kg, Cmax): 141 ng/mL
MRT inf ([6]; sc, 0.88 mg/kg): 52.4 min
Tmax [7]: 6 min
AUC(0-t) ([7]; AUClast, plasma, Mean, male C57BL/6J mice, single oral dose 25 mg/kg): 857 ng·h/mL
concentration at 0.5 h ([7]; Brain concentration, Mean): 65.7 ng/g
concentration at 1 h ([7]; Brain concentration, Mean): 22.6 ng/g
concentration at 2 h ([7]; Brain concentration, Mean): 16.8 ng/g
concentration at 3 h ([7]; Brain concentration, Mean): 11.5 ng/g
concentration at […] ([7]; Brain concentration, Mean, male C57BL/6J mice, repeated oral dose 25 mg/kg): 2330 ng/g
concentration at 2 h ([7]; Brain concentration, male C57BL/6J mice, repeated oral dose 25 mg/kg, 2 h post last day (Day 4) dose, G3): 10.9 ng/g
concentration at […] ([7]; Brain concentration, male C57BL/6J mice, repeated oral dose 25 mg/kg, G3): 1080 ng/g
concentration at 1 h ([7]; CSF concentration): 3.71 ng/mL
concentration at 2 h ([7]; CSF concentration): 3.08 ng/mL
concentration at 4 h ([7]; CSF concentration): 4.08 ng/mL
concentration at 0.5 h ([7]; CSF concentration, Mean): 7.7 ng/mL
concentration at 1 h ([7]; CSF concentration, Mean): 3.32 ng/mL
concentration at 2 h ([7]; CSF concentration, Mean): 3.56 ng/mL
concentration at 4 h ([7]; CSF concentration, Mean): 3.42 ng/mL
concentration at […] ([7]; CSF concentration, Mean, male C57BL/6J mice, repeated oral dose 25 mg/kg): 50.2 ng/mL
concentration at […] ([7]; CSF concentration, male C57BL/6J mice, repeated oral dose 25 mg/kg, G2): 178 ng/mL
concentration at 1 h ([7]; CSF concentration, male C57BL/6J mice, single oral dose 25 mg/kg, 1 h, G3): 3.18 ng/mL
Cmax [7]: 200 ng/mL
Cmax ([7]; CSF, Mean, male C57BL/6J mice, single oral dose 25 mg/kg): 56.4 ng/mL
Cmax ([7]; brain, Mean, male C57BL/6J mice, last day (Day 4) of repeated oral dose 25 mg/kg): 2330 ng/mL
Cmax ([7]; brain, Mean, male C57BL/6J mice, single oral dose 25 mg/kg): 729 ng/mL
Cmax ([7]; plasma, Mean, male C57BL/6J mice, last day (Day 4) of repeated oral dose 25 mg/kg): 1360 ng/mL
Cmax ([7]; plasma, Mean, male C57BL/6J mice, single oral dose 25 mg/kg): 1150 ng/mL
concentration at 2 h ([7]; Plasma concentration): 100 ng/mL
concentration at 8 h ([7]; Plasma concentration): 0.765 ng/mL
concentration at 12 h ([7]; Plasma concentration): 0.198 ng/mL
concentration at 0.5 h ([7]; Plasma concentration, Mean): 528 ng/mL
concentration at 1 h ([7]; Plasma concentration, Mean): 235 ng/mL
concentration at 2 h ([7]; Plasma concentration, Mean): 74.4 ng/mL
concentration at 3 h ([7]; Plasma concentration, Mean): 72.4 ng/mL
concentration at 8 h ([7]; Plasma concentration, Mean): 0.87 ng/mL
concentration at 12 h ([7]; Plasma concentration, Mean): 0.174 ng/mL
concentration at […] ([7]; Plasma concentration, Mean, male C57BL/6J mice, repeated oral dose 25 mg/kg): 1360 ng/mL
concentration at 2 h ([7]; Plasma concentration, Mean, male C57BL/6J mice, single oral dose 25 mg/kg, 2 h): 122 ng/mL
concentration at 1 h ([7]; Plasma concentration, male C57BL/6J mice, repeated oral dose 25 mg/kg, 1 h post last day (Day 4) dose, G1): 112 ng/mL
concentration at 3 h ([7]; Plasma concentration, male C57BL/6J mice, repeated oral dose 25 mg/kg, 3 h post last day (Day 4) dose, G3): 73.1 ng/mL
concentration at 8 h ([7]; Plasma concentration, male C57BL/6J mice, repeated oral dose 25 mg/kg, 8 h post last day (Day 4) dose, G3): 1.24 ng/mL
concentration at […] ([7]; Plasma concentration, male C57BL/6J mice, repeated oral dose 25 mg/kg, G1): 1460 ng/mL
concentration at […] ([7]; Plasma concentration, male C57BL/6J mice, repeated oral dose 25 mg/kg, G2): 1520 ng/mL
concentration at […] ([7]; Plasma concentration, male C57BL/6J mice, repeated oral dose 25 mg/kg, G3): 1110 ng/mL
concentration at 1 h ([7]; Plasma concentration, male C57BL/6J mice, single oral dose 25 mg/kg, 1 h, G2): 162 ng/mL
concentration at 2 h ([7]; Plasma concentration, male C57BL/6J mice, single oral dose 25 mg/kg, 2 h, G2): 138 ng/mL
concentration at 0.5 h ([8]; animal 168777C): 4.15 ng/mL
concentration at 0.5 h ([8]; animal 168779C): 1.26 ng/mL
concentration at 0.5 h ([8]; animal 169939C): 0.975 ng/mL
concentration at 1 h ([8]; 1 h, animal 169939C): 2.81 ng/mL
concentration at 2 h ([8]; animal 168777C): 6.27 ng/mL
concentration at 2 h ([8]; animal 168779C): 6.27 ng/mL
concentration at 4 h ([8]; animal 168779C): 8.04 ng/mL
concentration at 4 h ([8]; animal 169939C): 5.91 ng/mL
concentration at 8 h ([8]; 8 h, animal 168777C): 1.13 ng/mL
